Measured values published in patent US12162867B2, “Inhibitors of RNA helicase DHX9 and uses thereof” (ACCENT THERAPEUTICS, INC., priority 2022, dated 2024).
pEC50, pIC50: −log10 of the molar value. Like-named read-outs stand apart in the source and are kept apart here.

Legend:
Format in all cases: cell-based
[1] = test system: circBRIP1 in HCT116 cells; experiment: DHX9 circBRIP1 cellular target engagement TaqMan Multiplex assay (qPCR); conditions: Homo sapiens; for pEC50: read-out: DHX9 Cellular Target Engagement EC50
[2] = test system: LS411N cells; experiment: DHX9 cellular proliferation assay (CellTiter-Glo), LS411N (CRC-MSI); conditions: Homo sapiens, LS-411N, read-out: LS411N (CRC-MSI-H) Antiproliferative IC50
[3] = test system: NCI-H747 cells; experiment: DHX9 cellular proliferation assay (CellTiter-Glo), NCI-H747 (CRC-MSS); conditions: Homo sapiens
[4] = HCT-116, circBRIP1, HCT116 cells, * Taqman assay was used
[5] = NCI-H747, NCI-H747, performed at Pharmaron, read-out: H747 (CRC-MSS) Antiproliferative IC50
[6] = HCT-116, 72 h, circBRIP1, HCT116 cells, 72 hours, Taqman assay (marked *)
[7] = LS411N, CRC-MSI-H, performed at Pharmaron
[8] = NCI-H747, NCI-H747, CRC-MSS, performed at Pharmaron, read-out: H747 (CRC-MSS) Antiproliferative IC50

SMILES	pEC50 [1, 4]	pIC50 [3, 5]	pIC50 ([2]; LS411N, performed at Pharmaron)	further results
Cc1cc(C(=O)Nc2cc(Cl)cc(NS(C)(=O)=O)c2)cn1-c1ccc(N2CCC3(CC3)C2)cn1 [Example 522]	6.96	< 5.00	6.68	–
Cc1sc(C(=O)Nc2cc(Cl)cc(NS(C)(=O)=O)c2)cc1-c1ncc(OC2CNC2)cn1 [Example 636, 4-[5-(azetidin-3-yloxy)pyrimidin-2-yl]-N-(3-chloro-5-methanesulfonamidophenyl)-5-methylthiophene-2-carboxamide]	6.52	< 5.00	5.92	–
Cn1cc(C(=O)Nc2cc(Cl)cc(NS(C)(=O)=O)c2)cc1-c1ncc(N2CC(F)C2)cn1 [Example 598]	7.30	< 5.00	6.76	–
Cc1sc(C(=O)Nc2cc(Cl)cc(NS(C)(=O)=O)c2)cc1-c1ncc(N2CC3(C2)CC(F)(F)C3)cc1F [Example 511]	7.43	5.13	6.83	–
CN1CC(Oc2cnc(-c3cc(C(=O)Nc4cc(Cl)cc(NS(C)(=O)=O)c4)cn3CC(F)(F)F)nc2)C1 [Example 613]	6.94	< 5.00	6.76	–
CCS(=O)(=O)Nc1cc(Cl)cc(NC(=O)c2cc(-c3ccc(F)cn3)n(C)c2)c1 [Example 579]	6.99	< 5.00	6.48	–
Cc1sc(C(=O)Nc2cc(Cl)cc(NS(C)(=O)=O)c2)cc1-c1ccc(C#N)cn1 [Example 377]	–	–	–	pEC50 [1, 6]: 7.43; pIC50 [2, 7]: 6.85; pIC50 [3, 8]: < 5.00
Cc1cc(C(=O)Nc2cc(Cl)cc(NS(C)(=O)=O)c2)cn1-c1ncc(N2CC(F)(F)C2)cc1C#N [Example 415]	7.16	5.15	6.30	–
Cc1sc(C(=O)Nc2cc(Cl)cc(NS(C)(=O)=O)c2)cc1-c1ncc(OC(C)C)cn1 [Example 541, N-(3-chloro-5-(methylsulfonamido)phenyl)-4-(5-isopropoxypyrimidin-2-yl)-5-methylthiophene-2-carboxamide]	–	–	–	EC50 ([1]; HCT-116, read-out: DHX9 Cellular Target Engagement EC50 (μM)): 0.0377 µM; pIC50 [2]: 7.30; pIC50 ([3]; NCI-H747, read-out: H747 (CRC-MSS) Antiproliferative IC50): 5.22
CCS(=O)(=O)Nc1cc(Cl)cc(NC(=O)c2cc(-c3ccc(N4CC(F)(F)C4)cn3)n(C)c2)c1 [Example 403]	7.00	5.13	6.64	–
Cn1cc(C(=O)Nc2cc(Cl)cc(NS(C)(=O)=O)c2)cc1-c1ncc(N2CCC(F)(F)C2)cn1 [Example 526]	7.53	< 5.00	6.88	–
CCS(=O)(=O)Nc1cc(Cl)cc(NC(=O)c2cc(-c3ncc(F)cc3OCc3cncnc3)c(C)s2)c1 [Example 623]	7.95	< 5.00	7.14	–
CS(=O)(=O)Nc1cc(Cl)cc(NC(=O)c2cc(-c3ncc(F)cc3OCc3cncnc3)n(CC(F)(F)F)c2)c1 [Example 735]	7.11	< 5.00	6.51	–
COc1cnc(-c2cc(C(=O)Nc3cc(Cl)cc(NS(C)(=O)=O)c3)cn2C)nc1 [Example 549]	7.32	< 5.00	6.43	–
Cn1cc(C(=O)Nc2cc(Cl)cc(NS(C)(=O)=O)c2)cc1-c1ncc(F)cc1F [Example 540, N-(3-chloro-5-methanesulfonamidophenyl)-5-(3,5-difluoropyridin-2-yl)-1-methyl-1H-pyrrole-3-carboxamide]	–	5.10	6.76	pEC50 ([1]; HCT-116, circBRIP1, HCT116 cells, cell carries no mark, SyBr or Taqman not indicated): 7.13
Cc1sc(C(=O)Nc2cc(Cl)cc(NS(C)(=O)=O)c2)cc1-c1ccc(N2CCN(C(=O)C3CC3)CC2)cn1 [Example 590, N-(3-chloro-5-methanesulfonamidophenyl)-4-[5-(4-cyclopropanecarbonylpiperazin-1-yl)pyridin-2-yl]-5-methylthiophene-2-carboxamide]	7.47	< 5.00	6.27	–
Cc1sc(C(=O)Nc2cc(Cl)cc(NS(C)(=O)=O)c2)cc1-c1ncc(N2CCC3(C2)CC3(F)F)cc1F (stereo not drawn) [Example 480]	7.25	< 5.00	6.82	–
COc1cc(N2CC(F)(F)C2)cnc1-c1cc(C(=O)Nc2cc(Cl)cc(NS(C)(=O)=O)c2)sc1C [Example 535]	8.33	< 5.00	7.03	–
CN1C(=O)N(c2ccc(-c3cc(C(=O)Nc4cc(Cl)cc(NS(C)(=O)=O)c4)cn3C)nc2)C(=O)C1(C)C [Example 603]	7.34	5.08	5.96	–
Cc1cc(C(=O)Nc2cc(Cl)cc(NS(C)(=O)=O)c2)cn1-c1ccc(N2C3CCC2CC3)cn1 [Example 523]	7.24	5.23	6.76	–
Cn1cc(C(=O)Nc2cc(Cl)cc(NS(C)(=O)=O)c2)cc1-c1ccc(N2CCCC2)cn1 [Example 402]	7.16	5.15	6.78	–
Cc1sc(C(=O)Nc2cc(Cl)cc(NS(C)(=O)=O)c2)cc1-c1ncc(N2CC(F)(F)C2)cc1OC1CCC1 [Example 514]	7.34	< 5.00	6.83	–
Cn1cc(C(=O)Nc2cc(Cl)cc(NS(C)(=O)=O)c2)cc1-c1ncc(OC(F)F)cn1 [Example 553]	7.15	< 5.00	6.68	–
Cn1cc(C(=O)Nc2cc(Cl)cc(NS(C)(=O)=O)c2)cc1-c1ncc(N2CC(F)(F)C2)cn1 [Example 597]	7.19	< 5.00	6.79	–
Cn1cc(C(=O)Nc2cc(Cl)cc(NS(C)(=O)=O)c2)cc1-c1ccc(C2CCOCC2)cn1 [Example 704]	7.60	5.15	7.24	–
Cc1sc(C(=O)Nc2cc(Cl)cc(NS(C)(=O)=O)c2)cc1-c1ncc(N2CC(F)(F)C2)cc1C#N [Example 715]	7.84	5.01	7.16	–
Cc1sc(C(=O)Nc2cc(Cl)cc(NS(C)(=O)=O)c2)cc1-c1ncc(F)cc1F [Example 349]	–	–	–	pEC50 [1, 6]: 7.24; pIC50 [2, 7]: 6.81; pIC50 [3, 8]: < 5.00
Cn1cc(C(=O)Nc2cc(Cl)cc(NS(C)(=O)=O)c2)cc1-c1ncc(F)cc1C#N [Example 546]	6.96	< 5.00	5.96	–

Further lines, with some results ahead:

pEC50 [1, 4]	pIC50 [3, 5]	SMILES	pIC50 ([2]; LS411N, performed at Pharmaron)	further results
7.37	5.47	Cc1sc(C(=O)Nc2cc(Cl)cc(NS(C)(=O)=O)c2)cc1-c1ncc(OC(C)(C)C)cn1 [Example 559]	7.13	–
7.36	5.60	Cn1cc(C(=O)Nc2cc(Cl)cc(NS(C)(=O)=O)c2)cc1-c1ccc(N2CC(C(F)(F)F)C2)cn1 [Example 497]	6.77	–
7.32	5.33	CC(C)(C)Oc1cnc(-c2cc(C(=O)Nc3cc(Cl)cc(NS(C)(=O)=O)c3)sc2CO)nc1 [Example 686]	6.88	–
7.20	5.19	CS(=O)(=O)Nc1cc(Cl)cc(NC(=O)c2cc(-c3ncc(N4CC(C(F)(F)F)C4)cn3)n(CC(F)F)c2)c1 [Example 508]	6.97	–
7.37	5.87	Cn1cc(C(=O)Nc2cc(Cl)cc(NS(C)(=O)=O)c2)cc1-c1ncc(N2CCC(F)(F)C2)cc1F [Example 525]	6.84	–
7.97	5.27	Cc1sc(C(=O)Nc2cc(Cl)cc(NS(C)(=O)=O)c2)cc1-c1ccc(C2CN(CC(F)(F)F)C2)cn1 [Example 710]	7.32	–
7.26	5.18	CCOc1cnc(-c2cc(C(=O)Nc3cc(Cl)cc(NS(C)(=O)=O)c3)cn2C)c(F)c1 [Example 453]	6.66	–
7.51	5.70	CS(=O)(=O)Nc1cc(Cl)cc(NC(=O)c2cc(-c3ncc(N4CC(F)(F)C4)cn3)cs2)c1 [Example 486]	6.95	–
7.14	5.16	COc1cc(N2CC(F)(F)C2)cnc1-c1cc(C(=O)Nc2cc(Cl)cc(NS(=O)(=O)CCO)c2)sc1C [Example 528]	5.95	–
7.63	5.69	Cc1sc(C(=O)Nc2cc(Cl)cc(NS(C)(=O)=O)c2)cc1-c1ccc(N2CC(C(F)(F)F)C2)cn1 [Example 496]	7.32	–
6.99	5.32	Cc1sc(C(=O)Nc2cc(Cl)cc(NS(C)(=O)=O)c2)cc1-c1ncc(N2CCC3(CC2)CC3(F)F)cc1F [Example 478]	6.59	–
7.24	5.58	CC(C)Oc1ccc(-c2csc(C(=O)Nc3cc(Cl)cc(NS(C)(=O)=O)c3)c2)nc1 [Example 459]	7.03	–
7.29	5.41	Cc1sc(C(=O)Nc2cc(Cl)cc(NS(C)(=O)=O)c2)cc1-c1ncc(OCC(F)(F)F)cn1 [Example 706]	6.61	–
6.96	5.25	Cn1cc(C(=O)Nc2cc(Cl)cc(NS(C)(=O)=O)c2)cc1-c1ccc(N2CCC(F)(F)C2)cn1 [Example 527]	7.18	–
7.33	5.35	Cn1cc(C(=O)Nc2cc(Cl)cc(NS(C)(=O)=O)c2)cc1-c1ccc(OC(C)(C)C)cn1 [Example 555]	6.92	–
7.45	5.94	Cc1sc(C(=O)Nc2cc(Cl)cc(NS(C)(=O)=O)c2)cc1-c1ncc(N2CCCC(F)(F)C2)cc1F [Example 482]	7.18	–
